This assay relates to blood platelet aggregation. Kind of assay: Inhibition of blood platelet aggregation (ex vivo, ADP or collagen induced, rats dosed orally). The class given is in vivo, rat (SD strain, female). Particulars: rat, oral, 4 hours before test, ADP or collagen (inducer not given), read-out: % Inhibition of blood platelet aggregation (Test Ex. 2). On the procedure:
Inhibition of Blood Platelet Aggregation Female rats of the SD strain (supplied by Japan Charles River Inc.) were divided into groups of 4 each for the test. […] As a control, a 5% w/v aqueous solution of gum arabic was administered to a control group of rats, without any test drug. Blood platelet aggregation was tested according to the method of P. Lumley and P. P. A. Humphrey [J. Pharmacol. Methods 6, 153-166 (1981)]with a partial modification. […] The blood platelet aggregation rate was calculated from the following equation. […] The inhibitory effect was calculated as the percent inhibition of the treated groups as compared with the control groups.

In the case of `CC(C)(C)C(=O)Oc1cc2c(s1)CCN(C(C(=O)C1CC1)c1ccccc1F)C2` (stereo not drawn) [Compound No. 196, 5-(α-Cyclopropylcarbonyl-2-fluorobenzyl)-2-pivaloyloxy-4,5,6,7-tetrahydrothieno[3,2-c]pyridine], the inhibition at 1 mg/kg is 97.6%.

Turning to `Clc1ccccc1CN1CCc2sccc2C1` [Compound A, 5 (2-chlorobenzyl)-4,5,6,7-tetrahydrothieno[3,2-c]pyridine, reference compound], for the setting “30 mg/kg (footnote *)”, the inhibition at 30 mg/kg amounted to 3.7%.

Consider `CCC(=O)C(c1ccccc1F)N1CCc2sccc2C1` (stereo not drawn) [Compound No. 19, 5-(2-Fluoro-α-propionylbenzyl)-4,5,6,7-tetrahydrothieno[3,2-c]pyridine], for which the inhibition at 3 mg/kg was 29.3% and the inhibition at 10 mg/kg was determined as 97.8%.

Consider `CCCC(=O)Oc1cc2c(s1)CCN(C(C(=O)C1CC1)c1ccccc1F)C2` (stereo not drawn) [Compound No. 194, 2-Butyryloxy-5-(α-cyclopropylcarbonyl-2-fluorobenzyl)4,5,6,7-tetrahydrothieno[3,2-c]pyridine], for which the inhibition at 1 mg/kg was 100%.

In the case of `O=C1C=C2CN(C(C(=O)C3CC3)c3ccccc3F)CCC2S1` (stereo not drawn) [Compound No. 235, 5-(α-Cyclopropylcarbonyl-2-fluorobenzyl)-2-oxo-2,4,5,6,7,7a-hexahydrothieno[3,2-c]pyridine], the inhibition at 1 mg/kg came to 98.8%.

For the compound `COC(=O)C(c1ccccc1Cl)N1CCc2sccc2C1` (stereo not drawn) [Compound B, 5-(2-chloro-α-methoxycarbonylbenzyl) 4,5,6,7-tetrahydrothieno[3,2-c]pyridine, reference compound], the inhibition at 3 mg/kg worked out at 25.7% and the inhibition at 10 mg/kg was determined as 98.8%.

As for `O=C(C1CC1)C(c1ccccc1F)N1CCc2sccc2C1` (stereo not drawn) [Compound No. 59, 5-(α-Cyclopropylcarbonyl-2-fluorobenzyl)-4,5,6,7-tetrahydrothieno[3,2-c]pyridine], the inhibition at 1 mg/kg stood at 57.1% and the inhibition at 3 mg/kg stood at 98.1%.

On to `CC(=O)Oc1cc2c(s1)CCN(C(C(=O)C1CC1)c1ccccc1F)C2` (stereo not drawn) [Compound No. 190, 2-Acetoxy-5-(α-cyclopropylcarbonyl-2-fluorobenzyl)4,5,6,7-tetrahydrothieno[3,2-c]pyridine], for which the inhibition at 1 mg/kg turned out to be 100%.

For `O=C1C=C2CN(C(C(=O)C3CC3)c3ccccc3Cl)CCC2S1` (stereo not drawn) [Compound No. 233, 5-(2-Chloro-α-cyclopropylcarbonylbenzyl)-2-oxo-2,4,5,6,7,7a-hexahydrothieno[3,2-c]pyridine], the inhibition at 10 mg/kg worked out at 98.9%.

With `O=C(C1CC1)C(c1ccccc1Cl)N1CCc2sccc2C1` (stereo not drawn) [Compound No. 60, 5-(2-Chloro-α-cyclopropylcarbonylbenzyl)-4,5,6,7-tetrahydrothieno[3,2-c]pyridine], the inhibition at 3 mg/kg is 74.2% and the inhibition at 10 mg/kg amounted to 100%.
